Experimental data published in patent US20230382869A1, “Phenyl-3,4-dihydroisoquinolin-2(1h)-yl-ethan-1-one derivatives as dopamine d1receptor positive allosteric modulators” (Eli Lilly and Company, priority 2020, published 2023).
Marks after values point to notes of the source that are not given here.

How the values were obtained:
CYP3A4 = CYP3A4 (Homo sapiens (Human), UniProt P08684); assay: Recombinant CYP phenotyping assay (fmCYP3A4_RCP); type: in vitro ADME; conditions: not examined in RCP assay; worst case of 100% metabolized by CYP3A4 assumed
Method: The relative fraction of a compound's metabolism contributed by a given CYP, as for example CYP3A4, of the total P450 metabolism of the compound may be determined as follows:
A panel of 9 human recombinant CYPs (rCYPs) provided as Supersomes (BD Gentest, Woburn, MA), including rCYPs 1A2, 2B6, 2C8, 2C9, 2C19, 2D6, 2J2, 3A4, and 3A5, are evaluated for compound metabolism (see generally Cannady E A, et al. (2015) Evacetrapib: in vitro and clinical disposition, metabolism, excretion, and assessment of drug interaction potential with strong CYP3A and CYP2C8 inhibitors. Pharmacol Res Perspect 3:e00179). […]
in which kdep is the substrate depletion rate constant (min^−1), pmol rCYP is the lot-specific amount of rCYP in the incubation, and relative activity factor (RAF) is a relative activity factor (pmol/mg) appropriate for the rCYPs/HLMs pair. The rate constant is determined in-house by experiment, the slope determined using linear regression from the log transformed % remaining on the y-axis vs time on the x-axis (min^−1). pmol rCYP and RAF are vender supplied constenats for the supersome.
The fraction of CYP3A4-mediated metabolism (fmCYP3A4_RCP) is determined by dividing the HLM-scaled CLint of CYP3A4 by the sum of the HLM-scaled CL1nt for each P450 subtype assayed (Cannady et al., 2015).

[1] = Fraction of drug unbound in human liver microsomes (fumic); type: in vitro ADME
Text: fumic is the fraction of drug unbound in human liver microsomes

[2] = Fraction escaping first-pass gut metabolism (FG); set-up: species or system human; conditions: calculated
Text: The estimation of fraction metabolized in the gut may be determined using the following equation found in Yang J, et al. (2007) Prediction of intestinal first-pass drug metabolism. Curr Drug Metab 8:676-684:
FG=Qgut/(Qgut+fugut×Clint CYP3A,gut)
Qgut=Qvilli×Clperm/(Qvilli+Clperm)
Clperm═Papp×Intestinal surface area
Clint,CYP3A,gut=CLint,CYP3A,liver/fumic×microsomal protein in gut (mg)×0.4 (in house calculation) Where Qgut is a hybrid flow term dependent upon the villous blood flow and permeability of the compound fugut is the fraction of drug unbound in the enterocyte
Qvilli is villous blood flow
Clperm is the clearance term defining permeability through the enterocyte
Papp is the passive permeability measured in MDCKII cell line in house fumic is the fraction of drug unbound in human liver microsomes
Human intestine parameters are from Yang et al., 2007, and Gertz M, et al. (2010) Prediction of human intestinal first-pass metabolism of 25 CYP3A substrates from in vitro clearance and permeability data. Drug Metab Dispos 38:1147-1158.

CYP3A = assay: Intrinsic clearance CLint,CYP3A,liver; type: in vitro ADME; conditions: human
[3] = In vivo tolerability in normal rats; conditions: broad dose range
[4] = system: human D1 receptor knock-in mice; assay: Basal (Habituated) Locomotor Activity; type: in vivo, mouse; conditions: for Basal Locomotor Activity (Total Ambulations for 60 min) Means: N = 8/group
Method: Locomotor activity is measured using an automated system to track movement in mice. Monitoring of mouse locomotor activity behaviors take place in transparent plastic shoebox cages having dimensions of 45×25×20 cm, with a 1 cm depth of wood chips for absorbent bedding, and covered with a ventilated filtered plastic cage top. Cages were placed in a rectangular frame containing a grid of 12 photocell beams in an 8×4 configuration (Kinder Scientific, Poway, CA) that is positioned 2.5 centimeters from the floor of the cage for the detection of body movements (ambulations) and recorded by computer.
Male human D1 receptor knock-in mice are placed in chambers and allowed to habituate to the chambers for 60 min. During the habituation period, the mice show decreasing locomotion over time, as expected. Following administration of a compound of the invention, animal movement is found to increase in a dose-dependent fashion.
The mice are randomly assigned to treatment groups. In the dose response study, each mouse is placed individually into one of the locomotor activity boxes for a 60 min. habituation period. The mice are then dosed orally using test compound in a 20% hydroxypropyl-betacyclodextrin vehicle and using a 10 mL/kg dose volume. After dosing, the mice are placed back into the LMA boxes and the total number of ambulations is recorded per 10 min interval for each mouse over a 60 min measurement period. Statistical analysis is carried out using one-way ANOVA followed by post-hoc analysis using Dunnett's Comparison test.

[5] = Passive permeability in MDCKII cell line (Papp); type: in vitro ADME; conditions: dog, MDCK
Text: Papp is the passive permeability measured in MDCKII cell line in house

Q: For C[C@H]1c2ccc(F)c(CCC(C)(C)O)c2C[C@H](CO)N1C(=O)Cc1c(F)cccc1Cl [Example 7, 2-(2-chloro-6-fluoro-phenyl)-1-[(1S,3R)-6-fluoro-3-(hydroxymethyl)-5-(3-hydroxy-3-methyl-butyl)-1-methyl-3,4-dihydro-1H-isoquinolin-2-yl]ethanone], which fm3A4_RCP (CYP3A4) is on record?
A: The fm3A4_RCP was 1.

Q: And the fumic [1]?
A: Its fumic is 0.392.

Q: And the FG [2]?
A: The FG was 0.78.

Q: And the microsomal CLint (CYP3A)?
A: The microsomal CLint was 25.5 µL/min/mg.

Q: What about the “tolerability / toxicity in vivo” value [3] of the same compound?
A: The value was “generally well tolerated”.

Q: And the “Basal Locomotor Activity (Total Ambulations for 60 min) Means” value (from here on “Basal Locomotor Activity”) ([4]; 3.0 mg/kg PO)?
A: The value was 538.

Q: And the “Basal Locomotor Activity” value ([4]; 6.0 mg/kg PO)?
A: The value was 1111.

Q: What about the “Basal Locomotor Activity” value ([4]; 10 mg/kg PO) of the same compound?
A: Its value is 1471***.

Q: What about the “Basal Locomotor Activity” value ([4]; 30 mg/kg PO) of the same compound?
A: The value was 3937****.

Q: And the “Basal Locomotor Activity” value ([4]; 60 mg/kg PO)?
A: The value was 4613****.

Q: What about the “in vivo efficacy in locomotor activation” value ([4]; 10, 30, and 60 mg/kg PO, habituated mice) of the same compound?
A: The value was “significant in vivo efficacy”.

Q: And the basal movement ([4]; oral dose response, 3-60 mg/kg)?
A: The basal movement was “increase basal movement in a dose dependent manner”.

Q: What about the Papp [5] of the same compound?
A: Its Papp is 37.9 ×10⁻⁶ cm/s.
